pIC50: −log10 of the molar value.
Tested on: Endogenous Huntingtin Protein
Test: Endogenous Huntingtin Protein Assay (ELISA-based MSD electrochemiluminescence)
Format: cell-based
Conditions: Table 1
Protocol: Compounds of Formula (I) or Formula (II) were tested using the Meso Scale Discovery (MSD) Assay provided in International Application No. PCT/US2016/066042, filed on Dec. 11, 2016 and claiming priority to U.S. Provisional Application 62/265,652 filed on Dec. 10, 2015, the entire contents of which are incorporated herein by reference.
The Endogenous Huntingtin Protein assay used in Example 1 was developed using the ELISA-based MSD electrochemiluminescence assay platform.
Endogenous Huntingtin Protein Assay
Meso Scale Discovery (MSD) 96-well or 384-well plates were coated overnight at 4° C. with MW1 (expanded polyglutamine) or MAB2166 monoclonal antibody (for capture) at a concentration of 1 μg/mL in PBS (30 μL per well). Plates were then washed three times with 300 μL wash buffer (0.05% Tween-20 in PBS) and blocked (100 μL blocking buffer; 5% BSA in PBS) for 4-5 hours at room temperature with rotational shaking and then washed three times with wash buffer.
Samples (25 μL) were transferred to the antibody-coated MSD plate and incubated overnight at 4° C. After removal of the lysates, the plate was washed three times with wash buffer, and 25 μL of #5656S (Cell signaling; rabbit monoclonal) secondary antibody (diluted to 0.25 μg/mL in 0.05% Tween-20 in blocking buffer) was added to each well and incubated with shaking for 1 Hour at room temperature. Following incubation with the secondary antibody, the wells were rinsed with wash buffer after which 25 μL of goat anti-rabbit SULFO TAG secondary detection antibody (required aspect of the MSD system) (diluted to 0.25 μg/mL in 0.05% Tween-20 in blocking buffer) was added to each well and incubated with shaking for 1 hour at room temperature. After rinsing three times with wash buffer, 150 μL of read buffer T with surfactant (MSD) were added to each empty well, and the plate was imaged on a SI 6000 imager (MSD) according to manufacturers' instructions provided for 96- or 384-well plates.

Row | Compound | pIC50
1 | Cc1cn2cc(-c3cnc4nc(OC5CC(C)(C)NC(C)(C)C5)sc4n3)cc(F)c2n1 [Compound 180, 6-(8-fluoro-2-methylimidazo[1,2-a]pyridin-6-yl)-2-[(2,2,6,6-tetramethylpiperidin-4-yl)oxy][1,3]thiazolo[4,5-b]pyrazine] | 6.30 to 7.00
2 | CN(c1nc2cnc(-c3cc(F)c4nn(C)cc4c3)cc2s1)C1CC2CCCC(C1)N2 (stereo not shown) [Compound 253, N-(9-azabicyclo[3.3.1]non-3-yl)-6-(7-fluoro-2-methyl-2H-indazol-5-yl)-N-methyl[1,3]thiazolo[4,5-c]pyridin-2-amine] | ≥ 7.00
3 | CN(c1nc2nnc(-c3ccc(-c4cn[nH]c4)cc3O)cc2s1)C1CCNCC1(C)C (stereo not shown) [Compound 355, 2-{6-[(3,3-dimethylpiperidin-4-yl)(methyl)amino][1,3]thiazolo[4,5-c]pyridazin-3-yl}-5-(1H-pyrazol-4-yl)phenol] | ≥ 7.00
4 | Cc1cn2cc(-c3ncc4nc(N(C)C5CCNCC5)sc4n3)cc(C#N)c2n1 [Compound 196, 2-methyl-6-{2-[methyl(piperidin-4-yl)amino][1,3]thiazolo[5,4-d]pyrimidin-5-yl}imidazo[1,2-a]pyridine-8-carbonitrile] | ≥ 7.00
5 | COc1cc(-c2cc(C)c3nn(C)cc3c2)cc2sc(C3CCNCC3)nc12 [Compound 99, 6-(2,7-dimethyl-2H-indazol-5-yl)-4-methoxy-2-(piperidin-4-yl)-1,3-benzothiazole] | 5.52 to 6.00
6 | Cc1cn2cc(-c3cnc4nc(OC5CC(C)(C)NC(C)(C)C5)sc4n3)cc(C#N)c2n1 [Compound 181, 2-methyl-6-{2-[(2,2,6,6-tetramethylpiperidin-4-yl)oxy][1,3]thiazolo[4,5-b]pyrazin-6-yl}imidazo[1,2-a]pyridine-8-carbonitrile] | 6.30 to 7.00
7 | Cc1nc2ccc(-c3cc(F)c4nc(C5CCNCC5)sc4c3)cc2o1 [Compound 70, 6-[4-fluoro-2-(piperidin-4-yl)-1,3-benzothiazol-6-yl]-2-methyl-1,3-benzoxazole] | ≥ 7.00
8 | CN(c1nc2cnc(-c3ccc4nn(C)cc4c3)cc2s1)C1CC2CCCC(C1)N2 (stereo not shown) [Compound 262, N-(9-azabicyclo[3.3.1]non-3-yl)-N-methyl-6-(2-methyl-2H-indazol-5-yl)[1,3]thiazolo[4,5-c]pyridin-2-amine] | ≥ 7.00
9 | CN1CCC(N(C)c2nc3nnc(-c4ccc(-c5c[nH]nc5F)cc4O)cc3s2)CC1 [Compound 332, 5-(3-fluoro-1H-pyrazol-4-yl)-2-{6-[methyl(1-methylpiperidin-4-yl)amino][1,3]thiazolo[4,5-c]pyridazin-3-yl}phenol] | ≥ 7.00
10 | Cc1cn2cc(-c3cnc4nc(N(C)C5CC(C)(C)NC(C)(C)C5)sc4n3)cc(C#N)c2n1 [Compound 163, 2-methyl-6-{2-[methyl(2,2,6,6-tetramethylpiperidin-4-yl)amino][1,3]thiazolo[4,5-b]pyrazin-6-yl}imidazo[1,2-a]pyridine-8-carbonitrile] | ≥ 7.00
11 | CN(c1nc2cnc(-c3cc(C#N)c4nn(C)cc4c3)cc2s1)C1CC2(C)CCC(C)(C1)N2 [Compound 287, 5-(2-{[(1R,3s,5S)-1,5-dimethyl-8-azabicyclo[3.2.1]octan-3-yl](methyl)amino}[1,3]thiazolo[4,5-c]pyridin-6-yl)-2-methyl-2H-indazole-7-carbonitrile] | ≥ 7.00
12 | CN1CC[C@@H]2CCN(c3nc4nnc(-c5ccc(-c6cn[nH]c6)cc5O)cc4s3)[C@@H]2C1 [Compound 369, 2-{6-[(3aR,7aS)-6-methyloctahydro-1H-pyrrolo[2,3-c]pyridin-1-yl][1,3]thiazolo[4,5-c]pyridazin-3-yl}-5-(1H-pyrazol-4-yl)phenol] | 6.30 to 7.00
13 | COc1cc(-c2cc(F)c3nc(C4CCNCC4)sc3c2)nn2cc(C)nc12 [Compound 151, 6-[4-fluoro-2-(piperidin-4-yl)-1,3-benzothiazol-6-yl]-8-methoxy-2-methylimidazo[1,2-b]pyridazine] | ≥ 7.00
14 | Cn1cc2cc(-c3ccc4nc(C5CCNC(C)(C)C5)sc4c3)ccc2n1 (stereo not shown) [Compound 115, 2-(2,2-dimethylpiperidin-4-yl)-6-(2-methyl-2H-indazol-5-yl)-1,3-benzothiazole] | 6.00 to 6.30
15 | Cc1cn2nc(-c3cc(F)c4nc(N(C)C5CC6CCC(C5)N6)sc4c3)cc(C#N)c2n1 (stereo not drawn) [Compound 235, 6-{2-[(3-exo)-8-azabicyclo[3.2.1]oct-3-yl(methyl)amino]-4-fluoro-1,3-benzothiazol-6-yl}-2-methylimidazo[1,2-b]pyridazine-8-carbonitrile] | ≥ 7.00
16 | CN(C)C1CCN(c2nc3ccc(-c4ccc5nn(C)cc5c4)cc3s2)CC1 [Compound 28, N,N-dimethyl-1-[6-(2-methyl-2H-indazol-5-yl)-1,3-benzothiazol-2-yl]piperidin-4-amine] | 5.52 to 6.00
17 | Cc1cc2nc(-c3cc(F)c4nc(C5CCNCC5)sc4c3)ccn2n1 [Compound 249, 5-[4-fluoro-2-(piperidin-4-yl)-1,3-benzothiazol-6-yl]-2-methylpyrazolo[1,5-a]pyrimidine] | ≥ 7.00
18 | Cc1nc2ccc(-c3cc4sc(N(C)C5CC(C)(C)NC(C)(C)C5)nc4cn3)cn2n1 [Compound 136, N-methyl-6-(2-methyl[1,2,4]triazolo[1,5-a]pyridin-6-yl)-N-(2,2,6,6-tetramethylpiperidin-4-yl)[1,3]thiazolo[4,5-c]pyridin-2-amine] | 6.30 to 7.00
19 | Cc1cn2cc(-c3cc(F)c4nc(N(C)C5CC(C)(C)NC(C)(C)C5)sc4c3)cc(C)c2n1 [Compound 39, 6-(2,8-dimethylimidazo[1,2-a]pyridin-6-yl)-4-fluoro-N-methyl-N-(2,2,6,6-tetramethylpiperidin-4-yl)-1,3-benzothiazol-2-amine] | ≥ 7.00
20 | Cc1cn2cc(-c3cc4sc(NC5CC(C)(C)N(C)C(C)(C)C5)nc4cn3)cc(F)c2n1 [Compound 267, 6-(8-fluoro-2-methylimidazo[1,2-a]pyridin-6-yl)-N-(1,2,2,6,6-pentamethylpiperidin-4-yl)[1,3]thiazolo[4,5-c]pyridin-2-amine] | 6.30 to 7.00
21 | CN(c1nc2c(F)cc(-c3cc(C#N)c4nn(C)cc4c3)cc2s1)C1CC(C)(C)NC(C)(C)C1 [Compound 91, 5-{4-fluoro-2-[methyl(2,2,6,6-tetramethylpiperidin-4-yl)amino]-1,3-benzothiazol-6-yl}-2-methyl-2H-indazole-7-carbonitrile] | ≥ 7.00
22 | CN1CC2(C1)CN(c1nc3nnc(-c4ccc(-c5c[nH]nc5F)cc4O)cc3s1)C2 [Compound 385, 5-(3-fluoro-1H-pyrazol-4-yl)-2-[6-(6-methyl-2,6-diazaspiro[3.3]heptan-2-yl)[1,3]thiazolo[4,5-c]pyridazin-3-yl]phenol] | ≥ 7.00
23 | CN(c1nc2nnc(-c3cc(F)c(-c4cn[nH]c4)cc3F)cc2s1)C1CCNCC1 [Compound 328, 3-[2,5-difluoro-4-(1H-pyrazol-4-yl)phenyl]-N-methyl-N-(piperidin-4-yl)[1,3]thiazolo[4,5-c]pyridazin-6-amine] | 6.30 to 7.00
24 | Cc1cn2nc(-c3cc(F)c4nc(C5CCNCC5)sc4c3)cc(N)c2n1 [Compound 188, 6-[4-fluoro-2-(piperidin-4-yl)-1,3-benzothiazol-6-yl]-2-methylimidazo[1,2-b]pyridazin-8-amine] | ≥ 7.00
25 | Cc1cn2nc(-c3cc(F)c4nc(N(C)C5CC(C)(C)NC(C)(C)C5)sc4c3)cc(C)c2n1 [Compound 127, 6-(2,8-dimethylimidazo[1,2-b]pyridazin-6-yl)-4-fluoro-N-methyl-N-(2,2,6,6-tetramethylpiperidin-4-yl)-1,3-benzothiazol-2-amine] | ≥ 7.00

— patent publication US12139499B2, “Heteroaryl compounds for treating Huntington's disease” (PTC THERAPEUTICS, INC., priority 2018, dated 2024)
